Patent US12479839B2, “Crystalline form of ATR inhibitor and use thereof” (Wuxi Biocity Biopharmaceutics Co., Ltd., priority 2019, dated 2025)
Each block holds one molecule with its values, some of them ahead of it.

What was measured:
[1] = In vivo pharmacokinetic study in female Balb/c Nude mice; design: species or system mouse
Procedure: Experimental procedure: The purpose of this study is to determine the pharmacokinetic parameters of the compound and calculate its gavage bioavailability in female Balb/c Nude mice.
Six female Balb/c Nude mice were used in this project, three mice were injected intravenously, with the dosage of 1 mg/kg, where plasma samples at 0 h (before administration) and at 0.0833, 0.25, 0.5, 1, 2, 4, 6, 8 and 24 h after administration were collected, and the other three mice were administered intragastrically with the dose of 10 mg/kg or 25 mg/kg, where plasma samples at 0 h (before administration) and at 0.5, 1, 2, 3, 4, 6, 8, 24 h after administration were collected. LC-MS/MS analysis was performed on the collected samples and data were collected. The collected analysis data were calculated with Phoenix WinNonlin 6.2.1 software for relevant pharmacokinetic parameters.
Note: C0 (nM) is the concentration of the drug in the body at 0 min; Cl (mL/min/kg) is the clearance rate of the drug in the body; Vdss (L/kg) is the volume of distribution of the drug in the body; T1/2 (h) is the half-life; AUC0-t (nM·h) is the amount of drug exposure in the body; Cmax (nM) is the highest concentration of the drug in the body; F is the bioavailability.

[2] = Solid physical stability tests of Crystal Form A under different temperature, humidity and light conditions; assay type: physicochemical; settings: Day 10, XRPD
Procedure: Four samples of Crystal Form A were weighed in parallel, each about 100 mg, placed on the bottom of a glass sample bottle and spread into a thin layer. The samples were sealed with aluminum foil paper, and some small holes were pierced in the aluminum foil paper to ensure that the sample can fully contact with the ambient air. Four prepared samples were placed in 25° C./92.5% relative humidity, 60° C., 40° C./75% and light conditions, respectively, and the physical stability of the samples on the 10th day was investigated. At the same time, a sample of about 100 mg of Crystal Form A was weighed separately, placed on the bottom of the glass sample bottle, sealed with a screw cap, and stored at −20° C. for use as control. On the 10th day, all the samples were taken out, returned to room temperature, and the appearance changes of the samples were observed. XRPD was used to detect the sample crystal forms. By comparing the accelerated samples with the control sample, the solid physical stability of Crystal Form A of the compound of formula (I) was determined.

[3] = Solid stability test of Crystal Form A under high temperature and high humidity; assay type: physicochemical; settings: 40° C./75% humidity
Procedure: Two samples of Crystal Form A were weighed in parallel, each about 100 mg, placed on the bottom of a glass sample bottle and spread into a thin layer. The samples were sealed with aluminum foil paper, and some small holes were pierced in the aluminum foil paper to ensure that the sample can fully contact with the ambient air. The samples were placed at a constant temperature and humidity box under the condition of 40° C./75% humidity. The samples under the above conditions were sampled and tested on day 30, and the test results were compared with the initial test result on day 0.

[4] = Solid stability tests of Crystal Form B under high temperature, high humidity and light conditions; assay type: physicochemical
From the text: The samples were sealed with aluminum foil paper, and some small holes were pierced in the aluminum foil paper to ensure that the sample can fully contact with the ambient air. The samples were placed in a constant temperature and humidity or light box under different humidity conditions. […] The test results were compared with the initial test results on day 0.

F ([1]; 10 mg/kg intragastric): 129.0%
AUC ([1]; mouse, plasma, 1 mg/kg IV, read-out: AUC04): 1.09 µM·h
SMILES: Cc1cnn(C)c1-c1cc(N2CCOC[C@H]2C)nc(-c2cc(CO)cc3[nH]ccc23)n1 [Compound of formula (1)]

Crystal Form ([2]; 25° C./92.5% relative humidity (open)): Form A
Crystal Form ([2]; 40° C./75% relative humidity (open)): Form A
Crystal Form ([2]; 60° C. (open)): Form A
Crystal Form ([2]; light): Form A
Crystal Form ([2]; −20° C. sealed (control)): Form A
Appearance ([3]; day 0): White
Content ([3]; day 0): 99.61%
Crystal Form ([3]; day 0): Form A
Total impurity ([3]; day 0): 0.39%
Appearance ([3]; day 30): White
Content ([3]; day 30): 99.59%
Crystal Form ([3]; day 30): Form A
Total impurity ([3]; day 30): 0.45%
SMILES: Cc1cnn(C)c1-c1cc(N2CCOC[C@H]2C)nc(-c2cc(CO)cc3[nH]ccc23)n1 [Crystal Form A]

Content ([4]; 25° C./65% RH, 3 month): 98.4%
Crystal Form ([4]; 25° C./65% RH, 3 month): Crystal Form B
Total impurity ([4]; 25° C./65% RH, 3 month): 0.45%
Content ([4]; 25° C./65% RH, 6 month): 99.8%
Crystal Form ([4]; 25° C./65% RH, 6 month): Crystal Form B
Total impurity ([4]; 25° C./65% RH, 6 month): 0.43%
Content ([4]; 25° C./65% RH, day 0): 99.0%
Crystal Form ([4]; 25° C./65% RH, day 0): Crystal Form B
Total impurity ([4]; 25° C./65% RH, day 0): 0.42%
Content ([4]; 25° C./92.5% RH, day 0): 99.0%
Crystal Form ([4]; 25° C./92.5% RH, day 0): Crystal Form B
Total impurity ([4]; 25° C./92.5% RH, day 0): 0.42%
Content ([4]; 25° C./92.5% RH, day 5): 98.9%
Crystal Form ([4]; 25° C./92.5% RH, day 5): Crystal Form B
Total impurity ([4]; 25° C./92.5% RH, day 5): 0.44%
Content ([4]; 25° C./92.5% RH, day 10): 100.1%
Crystal Form ([4]; 25° C./92.5% RH, day 10): Crystal Form B
Total impurity ([4]; 25° C./92.5% RH, day 10): 0.41%
Content ([4]; 25° C./92.5% RH, day 30): 99.7%
Crystal Form ([4]; 25° C./92.5% RH, day 30): Crystal Form B
Total impurity ([4]; 25° C./92.5% RH, day 30): 0.41%
Content ([4]; 40° C./75% RH, 1 month): 100.6%
Crystal Form ([4]; 40° C./75% RH, 1 month): Crystal Form B
Total impurity ([4]; 40° C./75% RH, 1 month): 0.45%
Content ([4]; 40° C./75% RH, 2 month): 100.4%
Crystal Form ([4]; 40° C./75% RH, 2 month): Crystal Form B
Total impurity ([4]; 40° C./75% RH, 2 month): 0.42%
Content ([4]; 40° C./75% RH, 3 month): 98.8%
Crystal Form ([4]; 40° C./75% RH, 3 month): Crystal Form B
Total impurity ([4]; 40° C./75% RH, 3 month): 0.44%
Content ([4]; 40° C./75% RH, 6 month): 99.8%
Crystal Form ([4]; 40° C./75% RH, 6 month): Crystal Form B
Total impurity ([4]; 40° C./75% RH, 6 month): 0.43%
Content ([4]; 40° C./75% RH, day 0): 99.0%
Crystal Form ([4]; 40° C./75% RH, day 0): Crystal Form B
Total impurity ([4]; 40° C./75% RH, day 0): 0.42%
Content ([4]; 60° C., day 0): 99.0%
Crystal Form ([4]; 60° C., day 0): Crystal Form B
Total impurity ([4]; 60° C., day 0): 0.42%
Content ([4]; 60° C., day 5): 101.5%
Crystal Form ([4]; 60° C., day 5): Crystal Form B
Total impurity ([4]; 60° C., day 5): 0.43%
Content ([4]; 60° C., day 10): 101.6%
Crystal Form ([4]; 60° C., day 10): Crystal Form B
Total impurity ([4]; 60° C., day 10): 0.39%
Content ([4]; 60° C., day 30): 99.4%
Crystal Form ([4]; 60° C., day 30): Crystal Form B
Total impurity ([4]; 60° C., day 30): 0.41%
Content ([4]; light, day 0): 99.0%
Crystal Form ([4]; light, day 0): Crystal Form B
Total impurity ([4]; light, day 0): 0.42%
Content ([4]; light, day 5): 101.0%
Crystal Form ([4]; light, day 5): Crystal Form B
Total impurity ([4]; light, day 5): 0.44%
Content ([4]; light, day 10): 100.7%
Crystal Form ([4]; light, day 10): Crystal Form B
Total impurity ([4]; light, day 10): 0.42%
SMILES: Cc1cnn(C)c1-c1cc(N2CCOC[C@H]2C)nc(-c2cc(CO)cc3[nH]ccc23)n1 [Crystal Form B]
